Results as given in patent US20090105476A1, “Organic Compounds” (Novartis AG, priority 2006, published 2009).
Counter-ions that a name gives are not always drawn.

Biological target: adenosine A2A receptor (Homo sapiens, UniProt P29274)
Experiment: A2A receptor agonist assay by the method of L. J. Murphree et al, Molecular Pharmacology 61, 455-462 (2002)
Format: binding
Details: Mol. Pharmacol. 61, 455-462 (2002)
Source text: Compounds of formula I and their pharmaceutically acceptable salts are useful as pharmaceuticals. In particular, they activate the adenosine A2A receptor, i.e. they act as A2A receptor agonists.

Chain of adenosine A2A receptor (P29274 whole entry): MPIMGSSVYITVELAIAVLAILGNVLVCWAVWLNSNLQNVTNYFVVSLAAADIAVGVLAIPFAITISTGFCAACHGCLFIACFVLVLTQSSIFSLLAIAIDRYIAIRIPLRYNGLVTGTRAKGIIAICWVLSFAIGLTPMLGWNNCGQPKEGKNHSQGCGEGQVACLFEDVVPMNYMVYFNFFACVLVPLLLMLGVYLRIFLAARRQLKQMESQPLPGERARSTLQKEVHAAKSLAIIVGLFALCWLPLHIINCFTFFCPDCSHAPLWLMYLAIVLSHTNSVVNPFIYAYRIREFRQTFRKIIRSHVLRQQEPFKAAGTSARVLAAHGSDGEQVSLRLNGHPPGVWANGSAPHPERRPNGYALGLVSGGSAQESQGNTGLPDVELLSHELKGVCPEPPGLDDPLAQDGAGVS

Compound	Ki
CS(=O)(=O)N[C@H]1C[C@@H](n2cnc3c(N)nc(Cl)nc32)[C@H](O)[C@@H]1O [Example 1, N-[(1S,2R,3S,4R)-4-(6-Amino-2-chloropurin-9-yl)-2,3-dihydroxy-cyclopentyl]-methane-sulfonamide Trifluoroacetate]	582 nM
CCC(=O)N[C@H]1C[C@@H](n2cnc3c(N)nc(NCCc4ccccc4)nc32)[C@H](O)[C@@H]1O [Example 2, N-[(1S,2R,3S,4R)-4-(6-Amino-2-phenethlamino-purin-9-yl)-2,3-dihydroxy-cyclopentyl]-propionamide trifluoroacetate]	18 nM
CCC(=O)N[C@H]1C[C@@H](n2cnc3c(NCC(c4ccccc4)c4ccccc4)nc(Cl)nc32)[C@H](O)[C@@H]1O [Example 4, N-{(1S,2R,3S,4R)-4-[2-chloro-6-(2,2-diphenyl-ethylamino)purin-9-yl]-2,3-dihydroxy-cyclopentyl}-propionamide]	57 nM
CCC(=O)N[C@H]1C[C@@H](n2cnc3c(NCC(c4ccccc4)c4ccccc4)nc(N4CC[C@@H](NC(=O)N[C@@H]5CCNC5)C4)nc32)[C@H](O)[C@@H]1O [Example 39, N-((1S,2R,3S,4R)-4-4-{6-(2,2-Diphenyl-ethylamino)-2-[(R)-3-((R)-3-pyrrolidin-3-yl)ureido)-pyrrolidin-1-yl]-purin-9-yl}-2,3-dihydroxy-cyclopentyl)-propionamide Trifluoroacetate]	3 nM

Next, values leading:

Ki	Compound
8 nM	CCCCC#Cc1nc(NCC(c2ccccc2)c2ccccc2)c2ncn(C3CC(NC(=O)CC)C(O)C3O)c2n1 [Example 6, N-{(1S,2R,3S,4R)-4-[6-(2,2-Diphenyl-ethylamino-2-hex-1-ynyl-purin-9-yl]-2,3-dihydroxy-cyclopentyl}-propionamide]
3 nM	O=C(N[C@H]1C[C@@H](n2cnc3c(NCC(c4ccccc4)c4ccccc4)nc(Cl)nc32)[C@H](O)[C@@H]1O)C1CC1 [Example 12, Cyclopropanecarboxylic acid {(1S,2R,3S,4R)-4-[2-chloro-6-(2,2-diphenyl-ethylamino)-purin-9-yl]-2,3-dihydroxy-cyclopentyl}-amide]
690 nM	CCC(=O)N[C@H]1C[C@@H](n2cnc3c(NC(CC)CC)nc(Cl)nc32)[C@H](O)[C@@H]1O [Example 14, N-{(1S,2R,3S,4R)-4-[2-chloro-6-(1-ethyl-propylamino)-purin-9-yl]-2,3-dihydroxy-cyclopentyl}-propionamide]
8 nM	CCC(=O)N[C@H]1C[C@@H](n2cnc3c(NC(CC)CC)nc(NC4CCC(N)CC4)nc32)[C@H](O)[C@@H]1O (stereo partly drawn) [Example 20, N-{(1S,2R,3 S,4R)-4-[2-(4-Amino-cyclohexylamino)-6-(1-ethyl-propylamino)-purin-9-yl]-2,3-dihydroxy-cyclopentyl}-propionamide]
2 nM	CC(=O)N[C@H]1C[C@@H](n2cnc3c(NCC(c4ccccc4)c4ccccc4)nc(C(=O)NCCNC(=O)NC4CCN(c5ccccn5)CC4)nc32)[C@H](O)[C@@H]1O [Example 42, 9-((1R,2S,3R,4S)-4-acetylamino-2,3-dihydroxy-cyclopentyl)-6-(2,2-diphenyl-ethylamino)-9H-purine-2-carboxylic acid {2-[3-(3,4,5,6-tetra-hydro-2H-[1,2′]bipyridinyl-4-yl)-ureido]-ethyl}-amide trifluoroacetate]
4 nM	CCC(=O)N[C@H]1C[C@@H](n2cnc3c(NCc4cccc5ccccc45)nc(N4CC[C@@H](NC(=O)N[C@@H]5CCNC5)C4)nc32)[C@H](O)[C@@H]1O [Example 55, N-((1S,2R,3S,4R)-2,3-Dihydroxy-4-{6-[(naphthalen-1-ylmethyl)-amino]-2-[(R)-3-((R)-3-pyrrolidin-3-ylureido)-pyrrolidin-1-yl]-purin-9-yl}-cyclopentyl)-propionamide Trifluoroacetate]
9 nM	CCC(=O)N[C@H]1C[C@@H](n2cnc3c(NCCC(c4ccccc4)c4ccccc4)nc(NCCc4cn(CC)cn4)nc32)[C@H](O)[C@@H]1O [Example 61, N-{(1S,2R,3S,4R)-4-(6-(3,3-diphenyl-propyl-amino)-2-[2-(1-ethyl-1H-imidazol-4-yl)-ethylamino]-purin-9-yl}-2,3-dihydroxy-cyclopentyl)-propionamide trifluoroacetate]
